# Measured values: patent US8859581B2, “Azaheterocyclic compounds as kinase inhibitors” (Merck Patent GmbH, priority 2005, dated 2014)
# Structures can show the parent of a compound that is named as a salt.
row,SMILES,melting point
1,COc1cccc(-c2c([Si](C)(C)C)[nH]c3ccnc(Cl)c23)c1,137 °C
2,COc1ccc(Nc2ccnc3[nH]c(-c4cc(OC)c(OC)c(OC)c4)cc23)cc1N1CCN(C)CC1 (as salt: hydrochloride) (hydrate or solvate) [Compound 3],78 to 80 °C
3,COc1cc(-c2cc3c(Nc4cccc(C#N)c4)ccnc3[nH]2)cc(OC)c1OC (as salt: hydrochloride) (hydrate or solvate) [Compound 11],291 to 292.5 °C
4,COc1cccc(-c2c([Si](C)(C)C)n(CCCCN3C(=O)c4ccccc4C3=O)c3ccnc(Cl)c23)c1 (as salt: TFA),183 to 184 °C
5,COc1cccc(-c2cc3c(NCCn4cccc4)ccnc3[nH]2)c1 (as salt: hydrochloride) [Compound 17],218 to 219 °C
6,COc1ccc(-c2cc3c(N(C(=O)c4ccc(F)c(Cl)c4)C(=O)c4ccc(F)c(Cl)c4)ccnc3[nH]2)cc1 (as salt: TFA) [Compound 33],142 to 144 °C
7,Fc1cccc(Nc2ccnc3[nH]c(-c4cccc(OCCCc5ccccc5)c4)cc23)c1 (as salt: HCl) [Compound 24],210 to 211.5 °C
8,COc1cccc(-c2cc3c(NCc4ccccc4)ccnc3[nH]2)c1 (as salt: hydrochloride) [Compound 14],117 to 119 °C
9,c1ccc(CCCOc2cccc(-c3cc4cccnc4[nH]3)c2)cc1 [Compound 30],128 to 129 °C
10,COc1cccc(-c2cc3c(NCCCn4ccnc4)ccnc3[nH]2)c1 (as salt: hydrochloride) [Compound 12],161 to 162 °C
11,COc1cc(-c2cc3c(Nc4cccnc4)ccnc3[nH]2)cc(OC)c1OC (as salt: hydrochloride) (hydrate or solvate) [Compound 2],202 to 203 °C
12,Fc1ccccc1Nc1ccnc2[nH]c(-c3cccc(OCCCc4ccccc4)c3)cc12 (as salt: HCl) [Compound 26],155 to 156 °C
13,c1ccc(CCCOc2cccc(-c3cc4c(Nc5ccccn5)ccnc4[nH]3)c2)cc1 (as salt: HCl) [Compound 25],175 to 176 °C
14,COc1ccc(CNc2ccnc3[nH]c(-c4cccc(OCc5ccccc5)c4)cc23)cc1 [Compound 32],218 to 219 °C
15,COc1ccc(CNc2ccnc3[nH]c(-c4cccc(OCCCc5ccccc5)c4)cc23)cc1 [Compound 23],164 to 165 °C
16,COc1cc(-c2cc3c(NCCc4cccnc4)ccnc3[nH]2)cc(OC)c1OC (as salt: hydrochloride) (hydrate or solvate) [Compound 9],105.5 to 106.5 °C
17,c1ccc(CCCOc2cccc(-c3cc4c(Nc5cccnc5)ccnc4[nH]3)c2)cc1 (as salt: HCl) [Compound 22],166 to 167.5 °C
18,COc1ccc(CNc2ccnc3[nH]c(-c4ccc(OC)cc4)cc23)cc1 (as salt: hydrochloride) [Compound 16],196 to 197 °C
19,COc1cc(-c2cc3c(NCc4cccnc4)ccnc3[nH]2)cc(OC)c1OC (as salt: hydrochloride) (hydrate or solvate) [Compound 8],181.5 to 183 °C
20,COc1cccc(-c2cc3c(NCCCN(C)C)ccnc3[nH]2)c1 (as salt: hydrochloride) (hydrate or solvate) [Compound 15],257 to 258 °C
21,"COc1cc(-c2cc3c(Nc4cnc5ccccc5c4)ccnc3[nH]2)cc(OC)c1OC (as salt: hydrochloride) [Compound 1, quinolin-3-yl-[2-(3,4,5-trimethoxyphenyl)-1H-pyrrolo[2,3b]pyridin-4-yl]amine]",227 to 228.5 °C
22,COc1cccc(-c2c([Si](C)(C)C)[nH]c3cc(Cl)ncc23)c1,179 to 179.5 °C
23,COc1cc(-c2cc3c(Nc4cnccn4)ccnc3[nH]2)cc(OC)c1OC (as salt: hydrochloride) (hydrate or solvate) [Compound 7],292 to 294 °C
24,COc1cccc(-c2cc3c(Nc4ccc(F)c(Cl)c4)ccnc3[nH]2)c1 (as salt: hydrochloride) [Compound 6],164 to 165 °C
25,COc1cc(-c2cc3c(NCCc4ccccn4)ccnc3[nH]2)cc(OC)c1OC (as salt: hydrochloride) (hydrate or solvate) [Compound 10],153 to 154 °C

# Further lines, results first:
row,melting point,SMILES
1,226 to 227 °C,COc1ccc(CNc2nccc3[nH]cc(-c4cccc(OC)c4)c23)cc1 (as salt: HCl) [Compound 42]
2,225 to 228.5 °C,Clc1cc2[nH]cc(-c3cccc(OCc4ccccc4)c3)c2cn1 [Compound 83]
3,> 299 °C,COc1cccc(-c2c[nH]c3ccnc(Nc4ccccn4)c23)c1 [Compound 53]
4,97 to 99 °C,COc1cccc(-c2cn(CCCCCNC(=O)c3ccccc3C(=O)O)c3cc(Cl)ncc23)c1 [Compound 82]
5,211 to 212 °C,COc1cccc(-c2c[nH]c3cc(Cl)ncc23)c1 [Compound 77]
6,130 to 131 °C,COc1ccc(CNc2nccc3[nH]c(-c4cccc(OCc5ccccc5)c4)cc23)cc1 (as salt: TFA) [Compound 48]
7,127 to 127.5 °C,COc1ccc(CNc2ccn(CCCCN)c3nc(-c4ccc(OC)cc4)cc2-3)cc1 (as salt: TFA) [Compound 36]
8,122 to 124 °C,COc1cccc(-c2cn(CCCNC(=O)c3ccccc3C(=O)O)c3ccnc(Cl)c23)c1 [Compound 50]
9,156 to 158 °C,Clc1nccc2[nH]cc(-c3cccc(OCc4ccccc4)c3)c12 [Compound 56]
10,160 °C (dec.),COc1cccc(-c2cn(CCNC(=O)c3ccccc3C(=O)O)c3cc(Cl)ncc23)c1 [Compound 78]
11,80 °C (dec.),COc1cccc(-c2c[nH]c3ccnc(NCc4cccnc4)c23)c1 [Compound 62]
12,141 to 142 °C,COc1ccc(-c2cc3c(NC(=O)Nc4ccc(Cl)c(C(F)(F)F)c4)ccnc3[nH]2)cc1 (as salt: TFA) [Compound 34]
13,129 to 130 °C,COc1cccc(-c2cn(CCCN3C(=O)c4ccccc4C3=O)c3ccnc(Cl)c23)c1 (as salt: TFA) [Compound 49]
14,100 to 101 °C,COc1cccc(-c2cn(CCCNC(=O)c3ccccc3C(=O)O)c3cc(Cl)ncc23)c1 [Compound 79]
15,159.5 to 160 °C,COc1cccc(-c2c[nH]c3ccnc(Cl)c23)c1 [Compound 46]
16,177 to 180 °C,COc1cccc(-c2cn(C3CC(CNC(=O)c4ccccc4C(=O)O)C3)c3cc(Cl)ncc23)c1 (centres unmarked) [Compound 80]
17,50 °C,COc1cccc(-c2cn(CCCCN)c3ccnc(N)c23)c1 (as salt: TFA) [Compound 47]
18,189.5 to 190 °C,C=CCNc1ccnc2[nH]c(-c3ccc(OC)cc3)cc12 (as salt: TFA) [Compound 35]
19,205 to 207 °C,COc1ccc(-c2cc3cnccc3[nH]2)cc1 [Compound 75]
20,177 to 178 °C,COc1cccc(-c2c[nH]c3ccnc(Nc4cccnc4)c23)c1 [Compound 63]
21,188 to 189 °C,COc1cccc(-c2cn(CCCCN3C(=O)c4ccccc4C3=O)c3ccnc(N)c23)c1 (as salt: TFA) [Compound 55]
22,168 to 170 °C,c1ccc(COc2cccc(-c3cc4cnccc4[nH]3)c2)cc1 [Compound 70]
